Holding throughout (format): binding
The target of test [1] is T1, DNA methyltransferase-1 (mDNMT1) (Mus musculus, UniProt P13864). The experiment in a line: SPR. A general note: In SPR one partner is held on a chip, and binding of the other changes the refractive index at the surface.
Test [2] addresses T2, DNA methyltransferase-1 (mDNMT1) (Mus musculus, UniProt P13864, N1248A). Put plainly: crystal structure at […] Å.
Test [3] concerns the target DNA methyltransferase-1 (mDNMT1) (Mus musculus, UniProt P13864, R1279D). Put plainly: SPR.
Test [4] has as its target T2, DNA methyltransferase-1 (mDNMT1). Put plainly: SPR.
The target in test [5] is T1, DNA methyltransferase-1 (mDNMT1). Put plainly: SPR. This is another data set of the same source.

Read-outs that look alike come from different tables or passages of the source.

T2 sequence (P13864 731-1602 N1248A): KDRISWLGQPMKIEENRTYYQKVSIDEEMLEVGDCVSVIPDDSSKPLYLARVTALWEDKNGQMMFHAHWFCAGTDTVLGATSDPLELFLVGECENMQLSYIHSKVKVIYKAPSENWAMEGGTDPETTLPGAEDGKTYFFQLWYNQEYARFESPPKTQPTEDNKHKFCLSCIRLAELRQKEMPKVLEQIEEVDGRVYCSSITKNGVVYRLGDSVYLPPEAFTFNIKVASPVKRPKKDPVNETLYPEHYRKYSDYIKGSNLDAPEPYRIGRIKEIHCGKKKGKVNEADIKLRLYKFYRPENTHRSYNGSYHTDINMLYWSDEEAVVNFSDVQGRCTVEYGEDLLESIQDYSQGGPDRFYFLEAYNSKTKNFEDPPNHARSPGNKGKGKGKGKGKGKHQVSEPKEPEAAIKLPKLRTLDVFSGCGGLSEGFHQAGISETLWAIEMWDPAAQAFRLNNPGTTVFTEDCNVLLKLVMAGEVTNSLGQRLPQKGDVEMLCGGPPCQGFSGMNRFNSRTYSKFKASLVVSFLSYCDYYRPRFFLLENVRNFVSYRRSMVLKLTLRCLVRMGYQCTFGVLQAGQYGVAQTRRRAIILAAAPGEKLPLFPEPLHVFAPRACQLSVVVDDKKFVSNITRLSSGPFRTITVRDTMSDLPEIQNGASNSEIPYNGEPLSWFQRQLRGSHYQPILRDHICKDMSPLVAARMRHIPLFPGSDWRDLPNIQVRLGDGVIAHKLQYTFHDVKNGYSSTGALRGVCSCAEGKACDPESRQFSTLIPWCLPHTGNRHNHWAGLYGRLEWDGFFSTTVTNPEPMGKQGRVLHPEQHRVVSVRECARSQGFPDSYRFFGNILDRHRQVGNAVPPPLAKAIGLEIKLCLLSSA
T1 sequence (P13864 731-1602): as the sequence (P13864 731-1602 N1248A) above, with A518N counted along it
Sequence of DNA methyltransferase-1 (mDNMT1) (Mus musculus, UniProt P13864, R1279D) (P13864 731-1602 R1279D): as the sequence (P13864 731-1602 N1248A) above, with A518N, R549D counted along it

`Nc1ncnc2c1ncn2[C@@H]1O[C@H](CSCC[C@H](N)C(=O)O)[C@@H](O)[C@H]1O` [AdoHcy]: the values for the Kd in test [1] and in test [2] were approximately 470 nM and “The N1248A mutant was bound to AdoHcy (Figure S5A)”, respectively.

`C[S+](CC[C@H](N)C(=O)[O-])C[C@H]1O[C@@H](n2cnc3c(N)ncnc32)[C@H](O)[C@@H]1O` (some centres unmarked) [AdoMet]: the Kd (commonly the constant that tells how readily two partners part at equilibrium) in test [3] is 3.78 µM; in test [4], 6.61 µM; in test [5] it was approximately 5.75 µM.

(Values after paper PMC6913882 (ACS chemical biology, 2018).)
